Results as given in PubChem BioAssay AID1963828 (Molecular Pharmacology Branch, DTP, NCI, 2024).

Test system: 991263-137-R1-J2-PDC complex spheroid viability
Test: Anticancer human tumor 991263-137-R1-J2-PDC patient-derived colon adenocarcinoma cell line growth inhibition [POLQ]
Details: for IC50: curve of first compound; for viability, T/C: stronger effect = lower value
Method in brief: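 PDC + HUVEC + MSC complex spheroids; POLQ inhibitors ± partner drugs; top conc. at/near clinical Cmax, else 10 microM (SN-38 1 microM), half-log dilutions; 37 degrees C, 5% CO2.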

[1] = second compound 0.0316 µM, first compound 0.0316 µM
[2] = second compound 0.0316 µM, first compound 0.1 µM
[3] = second compound 0.0316 µM, first compound 0.316 µM
[4] = second compound 0.0316 µM, first compound 1 µM
[5] = second compound 0.1 µM, first compound 0.0316 µM
[6] = second compound 0.1 µM, first compound 0.1 µM
[7] = second compound 0.1 µM, first compound 0.316 µM
[8] = second compound 0.1 µM, first compound 1 µM
[9] = second compound 0.316 µM, first compound 0.0316 µM
[10] = second compound 0.316 µM, first compound 0.1 µM
[11] = second compound 0.316 µM, first compound 0.316 µM
[12] = second compound 0.316 µM, first compound 1 µM
[13] = second compound 1 µM, first compound 0.0316 µM
[14] = second compound 1 µM, first compound 0.1 µM
[15] = second compound 1 µM, first compound 0.316 µM
[16] = second compound 1 µM, first compound 1 µM
[17] = second compound 3.16 µM, first compound 0.0316 µM
[18] = second compound 3.16 µM, first compound 0.1 µM
[19] = second compound 3.16 µM, first compound 0.316 µM
[20] = second compound 3.16 µM, first compound 1 µM
[21] = second compound 10 µM, first compound 0.0316 µM
[22] = second compound 10 µM, first compound 0.1 µM
[23] = second compound 10 µM, first compound 0.316 µM
[24] = second compound 10 µM, first compound 1 µM
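Also: spheroids exposed to compounds for 7 days before readout.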
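For viability, T/C in this document: 100% = DMSO vehicle control viability.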

SMILES: CCc1c2c(nc3ccc(O)cc13)-c1cc3c(c(=O)n1C2)COC(=O)[C@]3(O)CC + Cc1cccc(N(C)C(=O)C2C(O)CCN2c2nc(C)cc(C(F)(F)F)c2C#N)c1
- IC50 (second compound 0.0316 µM): 67 nM
- IC50 (second compound 0.1 µM): 100 nM
- IC50 (second compound 0.316 µM): 175 nM
- IC50 (second compound 1 µM): 72.3 nM
- IC50 (second compound 3.16 µM): 105 nM
- IC50 (second compound 10 µM): 153 nM
- viability, T/C (second compound 0.0316 µM, first compound 0.00316 µM): 103%
- viability, T/C (second compound 0.0316 µM, first compound 0.01 µM): 91.3%
- viability, T/C [1]: 48.6%
- viability, T/C [2]: 53.7%
- viability, T/C [3]: 36.3%
- viability, T/C [4]: 27.8%
- viability, T/C (second compound 0.1 µM, first compound 0.00316 µM): 96.7%
- viability, T/C (second compound 0.1 µM, first compound 0.01 µM): 119%
- viability, T/C [5]: 67.2%
- viability, T/C [6]: 57.1%
- viability, T/C [7]: 36.1%
- viability, T/C [8]: 28.4%
- viability, T/C (second compound 0.316 µM, first compound 0.00316 µM): 97.6%
- viability, T/C (second compound 0.316 µM, first compound 0.01 µM): 96%
- viability, T/C [9]: 73.4%
- viability, T/C [10]: 60.1%
- viability, T/C [11]: 41%
- viability, T/C [12]: 33.6%
- viability, T/C (second compound 1 µM, first compound 0.00316 µM): 111%
- viability, T/C (second compound 1 µM, first compound 0.01 µM): 111%
- viability, T/C [13]: 64.3%
- viability, T/C [14]: 50.6%
- viability, T/C [15]: 48.7%
- viability, T/C [16]: 32.5%
- viability, T/C (second compound 3.16 µM, first compound 0.00316 µM): 109%
- viability, T/C (second compound 3.16 µM, first compound 0.01 µM): 92.5%
- viability, T/C [17]: 70.4%
- viability, T/C [18]: 53.5%
- viability, T/C [19]: 33.9%
- viability, T/C [20]: 36.6%
- viability, T/C (second compound 10 µM, first compound 0.00316 µM): 108%
- viability, T/C (second compound 10 µM, first compound 0.01 µM): 81.5%
- viability, T/C [21]: 67.9%
- viability, T/C [22]: 53.2%
- viability, T/C [23]: 46.2%
- viability, T/C [24]: 24.5%

SMILES: CNCc1ccc(-c2[nH]c3cc(F)cc4c3c2CCNC4=O)cc1 + Cc1cccc(N(C)C(=O)C2C(O)CCN2c2nc(C)cc(C(F)(F)F)c2C#N)c1
- IC50 (second compound 0.0316 µM): > 10000 nM
- IC50 (second compound 0.1 µM): > 10000 nM
- IC50 (second compound 0.316 µM): > 10000 nM
- IC50 (second compound 1 µM): > 10000 nM
- IC50 (second compound 3.16 µM): > 10000 nM
- IC50 (second compound 10 µM): > 10000 nM
- viability, T/C [1]: 107%
- viability, T/C [2]: 103%
- viability, T/C [3]: 118%
- viability, T/C [4]: 93.4%
- viability, T/C (second compound 0.0316 µM, first compound 3.16 µM): 86.2%
- viability, T/C (second compound 0.0316 µM, first compound 10 µM): 106%
- viability, T/C [5]: 110%
- viability, T/C [6]: 107%
- viability, T/C [7]: 101%
- viability, T/C [8]: 107%
- viability, T/C (second compound 0.1 µM, first compound 3.16 µM): 105%
- viability, T/C (second compound 0.1 µM, first compound 10 µM): 99.4%
- viability, T/C [9]: 108%
- viability, T/C [10]: 120%
- viability, T/C [11]: 77.2%
- viability, T/C [12]: 112%
- viability, T/C (second compound 0.316 µM, first compound 3.16 µM): 110%
- viability, T/C (second compound 0.316 µM, first compound 10 µM): 126%
- viability, T/C [13]: 115%
- viability, T/C [14]: 102%
- viability, T/C [15]: 102%
- viability, T/C [16]: 113%
- viability, T/C (second compound 1 µM, first compound 3.16 µM): 127%
- viability, T/C (second compound 1 µM, first compound 10 µM): 94.3%
- viability, T/C [17]: 112%
- viability, T/C [18]: 101%
- viability, T/C [19]: 107%
- viability, T/C [20]: 108%
- viability, T/C (second compound 3.16 µM, first compound 3.16 µM): 110%
- viability, T/C (second compound 3.16 µM, first compound 10 µM): 119%
- viability, T/C [21]: 107%
- viability, T/C [22]: 114%
- viability, T/C [23]: 107%
- viability, T/C [24]: 114%
- viability, T/C (second compound 10 µM, first compound 3.16 µM): 123%
- viability, T/C (second compound 10 µM, first compound 10 µM): 94.2%
